These results are taken from patent US6723897B2, “Methods for controlling gibberellin levels” (Monsanto Technology, LLC, priority 1998, dated 2004).

Assay [1] deals with GA-deficient (Line 719, R5) soybeans. Briefly: Hilum treatment with GA15, GA19, GA24, GA44, hypocotyl length, GA-deficient soybean. The format is in vivo, Glycine max. The note with it: 10 μg/seed, 5 DAP. The text has this:
Transgenic seeds are fifth generation (R5) line 719 seeds.

In a further assay the test system is A3237 soybean. Put plainly: Stature of soybean plants with ancymidol soil drench. The format is in vivo, Glycine max. The protocol:
R1 lines are also evaluated for stature reduction, a key indicator of GA-deficiency in soybean. R1 seeds are grown as described above. Plant height is routinely measured at approximately one week after planting. Four lines (696, 719, 720 and 724) are identified that had overall stature reduction relative to the control (A3237) line and the control line plus ancymidol (10 mg/L), an inhibitor of GA (Table 3). As these are segregating from R1 seeds, the distribution stature of the plants is evaluated. Three lines (719, 720 and 724) have a population of strong dwarf soybean plants (<25% the height of the average control plant). The segregation ratio of R1 pMON29801 (FMV/asCPScc) (FIG. 7) soybean plants is checked by phenotype (stature) and for the expression of CP4 5-enolpyruvylshikimate-3-phosphate synthase by ELISA (Rogan et al., J. Food Control, in Press (1998)). The results for both of these analyses are fairly consistent (Table 4): Line 696 segregated at about 1:3, line 719 at about 1:2, line 720 at about 2:1 and line 724 at about 3:1. Thus, only line 724 is what could be considered normal Mendelian segregation.
In soybean, GAs increase through mid-seed development, and then decline as the seed matures (Birnberg et al. (1986) Plant Physiol. 82:241-246). This trend is similar to that observed in other legumes. […] This is supported by the following observations (data not shown). […] This is well after germination and axis elongation have begun. Both of these observations support the hypothesis that soybean seed germination and early axis elongation are not dependent on de novo gibberellin biosynthesis.

For GA15, the “hypocotyl height of GA-deficient (Line 719) soybeans (FIG. 41)” value (from here on “hypocotyl height of GA-deficient”) in assay [1] is recorded as “restored normal or greater hypocotyl height”.

On to `COc1ccc(C(O)(c2cncnc2)C2CC2)cc1` (stereo not shown) [ancymidol], for which the “Height (% of control)” value in the assay on A3237 soybean (7 DAP, ancymidol 10 mg/L) is 14 % of control. Also, in the assay on A3237 soybean (ancymidol soil drench 10 mg/L), the “Frequency of heights relative to A3237 control (%), 0-25%” value is reported as 100%; the “Frequency of heights relative to A3237 control (%), 25-50%” value is given as 0%; the “Frequency of heights relative to A3237 control (%), 50-75%” value came to 0%; the “Frequency of heights relative to A3237 control (%), 75-100%” value stood at 0%. Besides, the soybean axis elongation entry in the assay with A3237 soybean (first one to two days of growth, data not shown) is reported as “does not reduce soybean axis elongation”.

`C=C1C[C@]23C[C@@]1(O)CC[C@H]2[C@@]12CCC[C@@](C)(C(=O)OC1)[C@H]2[C@@H]3C(=O)O` [GA44]: the “hypocotyl height of GA-deficient” value in assay [1] is recorded as “restored normal or greater hypocotyl height”.

For the compound `C=C1C[C@]23C[C@H]1CC[C@H]2[C@]1(C=O)CCC[C@@](C)(C(=O)O)[C@H]1[C@@H]3C(=O)O` [GA24], the “hypocotyl height of GA-deficient” value in assay [1] is “restored normal or greater hypocotyl height”.

In the case of `C=C1C[C@]23C[C@@]1(O)CC[C@H]2[C@]1(C=O)CCC[C@@](C)(C(=O)O)[C@H]1[C@@H]3C(=O)O` [GA19], in assay [1], the “hypocotyl height of GA-deficient” value is on record as “restored normal or greater hypocotyl height”.
